According to the supplement of paper PMC10307832:

How the values were obtained:
Assay in all cases: relative viability (nuclei count vs DMSO), 5 days (fraction); higher = more cells survive
[1] = compound: CC1=C(C=CC(=C1)[N+](=O)[O-])NS(=O)(=O)C2=C(C=CC(=C2)Cl)Cl [FH535]
Outline: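 Only plates meeting two conditions passed: control CV below 25% and at least one doubling. Lung cancer cell lines, kept overnight at 37 °C in 1536-well plates, were pinned with five library-drug doses (not always all listed) √10 apart on vehicle-anchored plates and grown 5 days without medium change. A one-step fix, permeabilisation and Hoechst stain preceded 4× imaging and MetaXpress nuclear counting. Viability equals treated-well nuclei divided by vehicle-well nuclei, as the median over plates.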

[2] = compound: CC1=C(C=CC(=C1)[N+](=O)[O-])NS(=O)(=O)C2=C(C=CC(=C2)Cl)Cl [FH535] + CC1(C)CCC(c2ccc(Cl)cc2)=C(CN2CCN(c3ccc(C(=O)NS(=O)(=O)c4ccc(N[C@H](CCN5CCOCC5)CSc5ccccc5)c(S(=O)(=O)C(F)(F)F)c4)cc3)CC2)C1 [Navitoclax] (partner 0.5 µM)
Outline: (§1)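 Five library-drug doses in √10 steps were combined with a fixed anchor-drug dose, or a single drug was given alone, by pin tool to lung cancer cell lines in 1536-well plates the day after seeding. Nuclei were stained and counted after 5 days. Relative viability is the nuclei count in treated wells over that in vehicle wells, taken as the median of duplicate plates.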

[3] = compound: CC1=C(C=CC(=C1)[N+](=O)[O-])NS(=O)(=O)C2=C(C=CC(=C2)Cl)Cl [FH535] + COc1cccc2cc(-c3nc([C@H]4CC[C@H](C(=O)O)CC4)n4ncnc(N)c34)[nH]c12 [OSI-027] (partner 0.5 µM)
Outline: as §1

[4] = compound: CC1=C(C=CC(=C1)[N+](=O)[O-])NS(=O)(=O)C2=C(C=CC(=C2)Cl)Cl [FH535] + CS(=O)(=O)N1CCN(Cc2cc3nc(-c4cccc5[nH]ncc45)nc(N4CCOCC4)c3s2)CC1 [Pictilisib] (partner 1 µM)
Outline: as §1

[5] = compound: CC1=C(C=CC(=C1)[N+](=O)[O-])NS(=O)(=O)C2=C(C=CC(=C2)Cl)Cl [FH535] + Nc1ncn([C@H]2C[C@H](O)[C@@H](CO)O2)c(=O)n1 [Decitabine] (partner 2 µM)
Outline: as §1

Cell Line | relative viability ([1]; 0.04 µM) | relative viability ([1]; 0.1265 µM) | relative viability ([1]; 0.4 µM) | relative viability ([1]; 1.265 µM) | relative viability ([2]; first compound 0.04 µM) | relative viability ([2]; first compound 0.1265 µM) | relative viability ([2]; first compound 0.4 µM) | relative viability ([2]; first compound 1.265 µM) | relative viability ([3]; first compound 0.04 µM) | relative viability ([3]; first compound 0.1265 µM) | relative viability ([3]; first compound 0.4 µM) | relative viability ([3]; first compound 1.265 µM) | relative viability ([4]; first compound 0.04 µM) | relative viability ([4]; first compound 0.1265 µM) | relative viability ([4]; first compound 0.4 µM) | relative viability ([4]; first compound 1.265 µM) | relative viability ([5]; first compound 0.04 µM) | relative viability ([5]; first compound 0.1265 µM) | relative viability ([5]; first compound 0.4 µM) | relative viability ([5]; first compound 1.265 µM)
PC-3 [JPC-3] | 0.971 | 1.04 | 0.906 | 0.621 | 0.778 | 0.753 | 0.762 | 0.57 | 0.828 | 0.704 | 0.624 | 0.592 | 0.746 | 0.902 | 0.698 | 0.47 | 0.865 | 0.805 | 0.756 | 0.74
PC-14 | 1.01 | 1.06 | 0.989 | 0.955 | 0.972 | 1.1 | 1.01 | 0.941 | 0.83 | 0.9 | 0.896 | 0.783 | 0.73 | 0.743 | 0.709 | 0.655 | 0.218 | 0.231 | 0.242 | 0.223
RERF-LC-KJ | 0.947 | 0.998 | 0.962 | 0.808 | 1.15 | 0.784 | 1.11 | 0.719 | 0.538 | 0.616 | 0.6 | 0.4 | 0.49 | 0.534 | 0.478 | 0.392 | 0.645 | 0.707 | 0.55 | 0.467
SK-LU-1 | 1.03 | 1.02 | 0.945 | 0.758 | 0.89 | 1.01 | 0.688 | 0.622 | 0.359 | 0.347 | 0.324 | 0.235 | 0.503 | 0.568 | 0.487 | 0.4 | 0.63 | 0.517 | 0.626 | 0.44
SK-MES-1 | 0.986 | 1.01 | 0.963 | 0.776 | 1.16 | 1.22 | 1.12 | 0.929 | 0.679 | 0.573 | 0.565 | 0.435 | 0.329 | 0.384 | 0.365 | 0.411 | 0.356 | 0.347 | 0.429 | 0.386
SW 1573 | 0.908 | 1.01 | 0.899 | 0.836 | 0.938 | 1.01 | 0.837 | 0.768 | 0.601 | 0.613 | 0.67 | 0.445 | 0.485 | 0.612 | 0.471 | 0.465 | 0.464 | 0.515 | 0.52 | 0.411
UMC-11 | 0.94 | 0.877 | 0.9 | 0.911 | 0.312 | 0.315 | 0.298 | 0.262 | 0.413 | 0.561 | 0.431 | 0.416 | 0.749 | 0.619 | 0.726 | 0.787 | 0.609 | 0.529 | 0.594 | 0.576
